Measured values published in ChEMBL document CHEMBL1201862, “PubChem BioAssay data set” (2004).
Calls of active or inactive are those of the source.

How the values were obtained:
HT-1080 = assay: cytotoxicity in HT1080 fibrosarcoma cells, cell-based, fluorescence readout (AID 620); format: functional; settings: Homo sapiens
[1] = biological target: Luciferin 4-monooxygenase (Photinus pyralis, UniProt P08659); assay: Counter Screen for Luciferase-based Assay Positives. [Related pubchem assays: 620, 618, 411 ]
Estrogen receptor = biological target: T1, Estrogen receptor (Homo sapiens, UniProt P03372);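 also: potency for inhibiting coactivator peptide recruitment to the receptor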
T1 sequence (P03372 whole entry): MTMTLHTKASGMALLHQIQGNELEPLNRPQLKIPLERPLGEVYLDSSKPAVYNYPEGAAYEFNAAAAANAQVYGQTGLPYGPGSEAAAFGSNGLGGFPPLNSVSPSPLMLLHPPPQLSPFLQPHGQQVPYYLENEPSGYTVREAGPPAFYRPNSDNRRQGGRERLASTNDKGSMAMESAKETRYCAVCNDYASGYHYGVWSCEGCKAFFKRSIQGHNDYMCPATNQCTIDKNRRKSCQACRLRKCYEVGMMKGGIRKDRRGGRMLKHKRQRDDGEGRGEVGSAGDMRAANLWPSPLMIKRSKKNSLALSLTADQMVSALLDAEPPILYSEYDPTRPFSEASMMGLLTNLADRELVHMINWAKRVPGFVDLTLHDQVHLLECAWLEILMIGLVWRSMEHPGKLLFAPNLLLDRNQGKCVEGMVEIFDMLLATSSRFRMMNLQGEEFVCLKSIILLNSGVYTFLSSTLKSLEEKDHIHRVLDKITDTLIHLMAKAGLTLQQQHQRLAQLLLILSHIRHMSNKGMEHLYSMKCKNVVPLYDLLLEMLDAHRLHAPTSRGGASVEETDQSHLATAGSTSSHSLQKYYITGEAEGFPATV

[2] = cytotoxicity toward NIH3T3 fibroblasts, dose response, counter-screen, cell-based, ATP luminescence, mouse fibroblasts (AID 2010); format: functional;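 also: cells exposed to compound for about 90 hours before reading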
[3] = growth suppression of beta-catenin-knockout colon cells, dose response, cell-based, HCT116, human colon tumor (AID 1045); format: functional;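 also: HCT116 colon tumor cells with beta catenin knocked out; cells exposed to compound for 60 hours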
cells = format: functional
H4 [4] = assay: Amyloid Precursor 5' UTR neuroblastoma cell reporter line Measured in Cell-Based System Using Plate Reader - 2078-04_Inhibitor_Dose_DryPowder_Activity. [Related pubchem assays (depositor defined):AID488894]; format: functional; settings: Homo sapiens
[5] = growth suppression of PTEN-null colon cells, dose response, cell-based, HCT116 PTEN knockout (AID 1047); format: functional;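 also: HCT116 colon tumor cells with PTEN knocked out; cells exposed to compound for 60 hours before readout; potency for loss of cell viability measured by luminescence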
[6] = biological target: T2, Heat shock factor protein 1 (Mus musculus, UniProt P38532); assay: inhibition of MG132-induced HSE-luciferase signal, confirmation, cell-based, NIH3T3, luminescence, dose retest (AID 2382); format: functional;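 also: NIH3T3 fibroblasts with HSF1-driven luciferase reporter stressed by proteasome inhibitor MG132; luminescence from HSF1-driven luciferase expression after 8 hours of MG132 stress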
T2 sequence (P38532 whole entry): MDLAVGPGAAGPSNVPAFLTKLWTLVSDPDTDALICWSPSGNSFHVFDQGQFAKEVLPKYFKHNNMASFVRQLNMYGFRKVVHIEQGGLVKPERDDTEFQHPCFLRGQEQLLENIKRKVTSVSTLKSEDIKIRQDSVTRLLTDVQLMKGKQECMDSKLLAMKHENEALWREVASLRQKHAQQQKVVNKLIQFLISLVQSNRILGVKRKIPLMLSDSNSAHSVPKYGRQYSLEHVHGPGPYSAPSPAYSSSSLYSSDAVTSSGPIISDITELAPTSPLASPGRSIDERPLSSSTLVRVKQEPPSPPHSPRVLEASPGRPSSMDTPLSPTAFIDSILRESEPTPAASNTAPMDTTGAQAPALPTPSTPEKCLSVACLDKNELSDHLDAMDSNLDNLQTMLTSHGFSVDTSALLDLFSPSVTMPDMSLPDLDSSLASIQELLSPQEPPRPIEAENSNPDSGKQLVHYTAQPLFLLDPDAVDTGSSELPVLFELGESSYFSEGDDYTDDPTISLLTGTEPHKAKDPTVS

[7] = Vero E6 cell cytotoxicity, dose response, cytotoxicity control for non-replicating M. tuberculosis project, secondary assay (AID 492998); format: functional, VeroE6; settings: Vero C1008
[8] = cytotoxicity in HEK-293T cells, dose response, cytotoxicity control for TCR NF-kB inhibitor project, luminescence, T-cell screen hits (AID 489026); format: functional, cell-based;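 also: cells exposed to compound about 14 hours before the viability readout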
Streptococcus = assay: Group A Streptococcus viability loss, dose response, counter-screen for streptokinase expression inhibitor project, luminescence, BacTiterGlo (AID 1915); format: functional, organism-based;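 also: potency for reduction of bacterial viability or growth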
Cytochrome P450 2D6 = Cytochrome P450 2D6 (Homo sapiens, UniProt P10635);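 also: CYP2D6 member of a cytochrome P450 panel assay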
Streptokinase A = biological target: T3, Streptokinase A (Streptococcus pyogenes serotype M1, UniProt P10520); assay: S. pyogenes streptokinase expression inhibitors, potency, dose response, plasminogen activation absorbance, OD405 (AID 1914); format: functional, Streptococcus pyogenes M1 GAS;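 also: secreted streptokinase activity via plasminogen activation per viability signal from cell pellet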
T3 sequence (P10520 whole entry): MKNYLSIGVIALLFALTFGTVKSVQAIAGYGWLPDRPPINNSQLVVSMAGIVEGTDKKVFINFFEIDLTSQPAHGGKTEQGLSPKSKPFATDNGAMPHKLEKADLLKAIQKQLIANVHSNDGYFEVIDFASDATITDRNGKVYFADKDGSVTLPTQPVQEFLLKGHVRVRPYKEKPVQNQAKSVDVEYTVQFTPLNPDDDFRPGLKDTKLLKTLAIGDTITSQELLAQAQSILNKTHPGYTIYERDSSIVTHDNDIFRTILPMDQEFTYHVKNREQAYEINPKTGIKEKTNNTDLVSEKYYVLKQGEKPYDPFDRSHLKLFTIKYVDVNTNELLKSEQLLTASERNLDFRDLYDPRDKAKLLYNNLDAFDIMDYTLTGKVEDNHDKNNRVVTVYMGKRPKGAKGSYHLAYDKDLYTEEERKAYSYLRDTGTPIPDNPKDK

[9] = tested on: Streptococcus sp. 'group A'; assay: growth inhibition of control SK(-) GAS strain, dose response, counter-screen for streptokinase expression inhibitor project, luminescence, kanamycin, BacTiterGlo, confirmation (AID 1900); format: functional, organism-based
H4 [10] = assay: Inhibitors of Prion Protein 5' UTR mRNA Measured in Cell-Based System Using Plate Reader - 2078-01_Inhibitor_Dose_DryPowder_Activity. [Related pubchem assays (depositor defined):AID488894]; format: functional; settings: Homo sapiens
Cytochrome P450 2C19 = Cytochrome P450 2C19 (Homo sapiens, UniProt P33261); assay: Cytochrome panel assay with activity outcomes. Panel member name: p450-cyp2c19 Compounds with AC50 equal or less than 10 uM are considered active; format: functional; settings: read-out: AC50
H4 [11] = assay: inhibitors of control reporter signal in H4 cells – cell-based, plate reader, dry powder samples, counter-screen for prion reporter project, dose response (AID 540255); format: functional; settings: Homo sapiens
[12] = inhibitors of intracellular T. cruzi replication, confirmation, NIH3T3 host cells, beta-gal luminescence (AID 2044); format: functional, cell-based;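 also: intracellular parasites grown in NIH/3T3 mouse fibroblasts as host cells; luminescent beta-galactosidase reporter signal from transgenic T. cruzi replicating inside host cells; inhibitors lower the luminescence signal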
[13] = biological target: T4, Microphthalmia-associated transcription factor (Homo sapiens, UniProt O75030); assay: TRPM1 promoter luciferase signal decrease, dose response, MITF inhibitor project, cell-based, SK-MEL-5, cherry-picked, set 3 (AID 493073); format: functional
T4 sequence (O75030 whole entry): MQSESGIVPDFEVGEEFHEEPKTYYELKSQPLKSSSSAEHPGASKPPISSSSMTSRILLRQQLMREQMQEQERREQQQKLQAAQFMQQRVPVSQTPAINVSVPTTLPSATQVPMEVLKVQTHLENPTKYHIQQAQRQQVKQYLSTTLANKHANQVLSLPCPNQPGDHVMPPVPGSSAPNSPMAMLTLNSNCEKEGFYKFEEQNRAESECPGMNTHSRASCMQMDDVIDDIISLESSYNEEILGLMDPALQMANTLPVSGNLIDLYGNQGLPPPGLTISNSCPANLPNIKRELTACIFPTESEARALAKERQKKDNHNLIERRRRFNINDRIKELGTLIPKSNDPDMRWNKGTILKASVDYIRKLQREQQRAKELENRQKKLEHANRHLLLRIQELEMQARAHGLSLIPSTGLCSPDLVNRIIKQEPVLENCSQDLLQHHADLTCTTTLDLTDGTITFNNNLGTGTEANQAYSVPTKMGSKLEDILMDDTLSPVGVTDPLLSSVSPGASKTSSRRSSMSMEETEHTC

[14] = THP-1 cell cytotoxicity, dose response, cytotoxicity control for non-replicating M. tuberculosis project (AID 489025); format: functional
[15] = biological target: DNA (cytosine-5)-methyltransferase 1 (Homo sapiens, UniProt P26358); assay: DNMT1 methyltransferase inhibitors, confirmation, biochemical, fluorescent molecular beacon (AID 602386); format: functional
[16] = biological target: T5, Replicative DNA helicase DnaB (Mycobacterium tuberculosis, UniProt P9WMR3); assay: DnaB intein splicing inhibitors, dose response, biochemical, cell-free fluorescence (AID 449749); format: functional
T5 sequence (P9WMR3 whole entry): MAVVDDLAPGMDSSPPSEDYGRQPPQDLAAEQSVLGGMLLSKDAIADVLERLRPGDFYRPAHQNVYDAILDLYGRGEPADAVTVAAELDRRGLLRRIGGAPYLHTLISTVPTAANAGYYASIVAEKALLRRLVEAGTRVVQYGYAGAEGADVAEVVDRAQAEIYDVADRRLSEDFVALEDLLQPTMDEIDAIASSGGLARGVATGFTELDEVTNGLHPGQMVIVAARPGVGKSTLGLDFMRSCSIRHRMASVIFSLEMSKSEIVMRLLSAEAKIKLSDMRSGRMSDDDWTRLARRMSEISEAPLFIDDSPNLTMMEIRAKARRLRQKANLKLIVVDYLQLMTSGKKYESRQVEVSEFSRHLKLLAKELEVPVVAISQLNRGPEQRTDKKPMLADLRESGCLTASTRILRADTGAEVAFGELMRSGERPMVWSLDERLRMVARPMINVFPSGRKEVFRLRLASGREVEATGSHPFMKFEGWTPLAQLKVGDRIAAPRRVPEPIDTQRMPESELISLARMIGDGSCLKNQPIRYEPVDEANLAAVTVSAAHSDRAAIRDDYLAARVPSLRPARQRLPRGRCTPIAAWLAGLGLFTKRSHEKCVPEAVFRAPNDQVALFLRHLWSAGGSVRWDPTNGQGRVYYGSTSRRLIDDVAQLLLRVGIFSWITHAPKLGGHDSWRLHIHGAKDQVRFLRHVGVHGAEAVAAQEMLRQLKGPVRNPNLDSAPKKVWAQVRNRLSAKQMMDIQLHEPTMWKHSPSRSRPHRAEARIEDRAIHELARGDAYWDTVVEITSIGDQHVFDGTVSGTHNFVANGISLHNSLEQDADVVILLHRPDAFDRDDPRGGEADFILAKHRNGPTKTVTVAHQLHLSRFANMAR

Phospholipase A2 = Phospholipase A2 (Homo sapiens, UniProt P04054); format: functional;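 also: confirmatory dose-response counterscreen on phospholipase A2, testing hits that came from an ultra-high-throughput screen for ATG4B inhibitors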
Genome polyprotein = Genome polyprotein (dengue virus type 2, UniProt P29990); assay: Dengue-2 NS5 methyltransferase inhibitors, primary screen, biochemical, confirmation dose response (AID 588689); format: functional
Cysteine protease ATG4B = Cysteine protease ATG4B (Homo sapiens, UniProt Q9Y4P1); format: functional;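 also: Fluorescence-based dose-response confirmation assay measuring inhibition of ATG4B activity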
Protein RecA = biological target: T6, Protein RecA (Mycobacterium tuberculosis, UniProt P9WHJ3); assay: Fluorescence Cell-Free Homogeneous Dose Retest to Identify Inhibitors of RecA-Intein Splicing Activity. [Related pubchem assays (depositor defined):AID2097, AID2223, AID489010, AID492950]; format: functional
T6 sequence (P9WHJ3 whole entry): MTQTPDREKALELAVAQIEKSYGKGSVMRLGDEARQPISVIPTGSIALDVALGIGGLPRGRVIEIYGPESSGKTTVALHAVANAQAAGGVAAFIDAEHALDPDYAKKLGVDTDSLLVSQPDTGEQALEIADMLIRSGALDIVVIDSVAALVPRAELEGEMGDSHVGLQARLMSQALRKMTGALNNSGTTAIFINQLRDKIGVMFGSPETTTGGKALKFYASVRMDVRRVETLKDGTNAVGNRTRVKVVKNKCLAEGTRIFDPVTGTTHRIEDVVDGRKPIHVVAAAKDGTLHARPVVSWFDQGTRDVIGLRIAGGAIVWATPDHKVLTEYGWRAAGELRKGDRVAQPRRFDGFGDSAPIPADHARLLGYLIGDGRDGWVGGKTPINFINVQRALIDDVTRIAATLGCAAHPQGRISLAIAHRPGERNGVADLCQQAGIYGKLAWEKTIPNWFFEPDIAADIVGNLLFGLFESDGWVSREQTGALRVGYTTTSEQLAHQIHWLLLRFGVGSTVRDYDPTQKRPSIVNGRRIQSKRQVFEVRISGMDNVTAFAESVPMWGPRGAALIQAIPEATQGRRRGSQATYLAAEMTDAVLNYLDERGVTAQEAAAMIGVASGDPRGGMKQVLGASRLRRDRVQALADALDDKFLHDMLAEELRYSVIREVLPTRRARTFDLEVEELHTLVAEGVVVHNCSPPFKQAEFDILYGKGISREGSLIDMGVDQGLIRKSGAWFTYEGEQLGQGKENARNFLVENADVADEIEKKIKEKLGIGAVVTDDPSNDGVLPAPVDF

Chain of Cytochrome P450 2D6 (P10635 whole entry): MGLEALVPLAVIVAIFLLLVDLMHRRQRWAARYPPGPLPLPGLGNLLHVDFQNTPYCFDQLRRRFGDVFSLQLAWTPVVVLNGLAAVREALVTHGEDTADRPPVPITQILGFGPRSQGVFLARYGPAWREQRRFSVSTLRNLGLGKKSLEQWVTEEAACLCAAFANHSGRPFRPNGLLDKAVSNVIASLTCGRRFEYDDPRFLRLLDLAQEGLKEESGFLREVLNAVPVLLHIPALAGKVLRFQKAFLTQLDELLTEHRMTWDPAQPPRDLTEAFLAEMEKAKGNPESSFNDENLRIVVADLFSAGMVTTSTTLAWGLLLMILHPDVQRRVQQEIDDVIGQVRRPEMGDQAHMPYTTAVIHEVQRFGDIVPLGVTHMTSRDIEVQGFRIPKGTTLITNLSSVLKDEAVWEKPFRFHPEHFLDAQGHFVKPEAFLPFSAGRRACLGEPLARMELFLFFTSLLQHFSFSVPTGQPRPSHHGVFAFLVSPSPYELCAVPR
Chain of Luciferin 4-monooxygenase (P08659 whole entry): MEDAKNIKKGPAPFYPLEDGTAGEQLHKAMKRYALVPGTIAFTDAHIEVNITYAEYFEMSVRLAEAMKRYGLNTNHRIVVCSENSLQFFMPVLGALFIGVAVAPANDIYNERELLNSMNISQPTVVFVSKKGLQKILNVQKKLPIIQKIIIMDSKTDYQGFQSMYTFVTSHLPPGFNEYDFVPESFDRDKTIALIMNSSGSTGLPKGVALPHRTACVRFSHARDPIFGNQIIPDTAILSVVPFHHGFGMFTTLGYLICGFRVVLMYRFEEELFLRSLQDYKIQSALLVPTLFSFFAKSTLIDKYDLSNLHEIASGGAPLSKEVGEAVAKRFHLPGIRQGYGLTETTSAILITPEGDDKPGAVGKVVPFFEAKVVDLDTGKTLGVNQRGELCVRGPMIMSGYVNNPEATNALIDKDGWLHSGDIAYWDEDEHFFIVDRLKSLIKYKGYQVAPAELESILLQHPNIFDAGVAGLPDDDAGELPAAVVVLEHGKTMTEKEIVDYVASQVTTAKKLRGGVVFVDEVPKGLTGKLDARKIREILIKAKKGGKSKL
Chain of Cysteine protease ATG4B (Q9Y4P1 whole entry): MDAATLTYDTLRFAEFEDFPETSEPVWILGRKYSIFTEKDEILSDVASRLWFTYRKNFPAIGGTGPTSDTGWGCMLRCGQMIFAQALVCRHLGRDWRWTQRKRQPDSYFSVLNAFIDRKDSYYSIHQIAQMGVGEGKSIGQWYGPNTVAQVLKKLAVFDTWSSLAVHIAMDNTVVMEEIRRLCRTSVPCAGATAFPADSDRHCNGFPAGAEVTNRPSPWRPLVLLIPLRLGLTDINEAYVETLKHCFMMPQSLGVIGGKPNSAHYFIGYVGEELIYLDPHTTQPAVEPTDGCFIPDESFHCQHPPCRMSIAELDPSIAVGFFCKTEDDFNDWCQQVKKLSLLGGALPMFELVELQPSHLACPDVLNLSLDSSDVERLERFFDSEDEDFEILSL
Chain of Phospholipase A2 (P04054 whole entry): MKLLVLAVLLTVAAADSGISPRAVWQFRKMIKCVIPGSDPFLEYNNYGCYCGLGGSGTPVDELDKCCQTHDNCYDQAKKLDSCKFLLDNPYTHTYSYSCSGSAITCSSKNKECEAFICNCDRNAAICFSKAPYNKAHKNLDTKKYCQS
Chain of Cytochrome P450 2C19 (P33261 whole entry): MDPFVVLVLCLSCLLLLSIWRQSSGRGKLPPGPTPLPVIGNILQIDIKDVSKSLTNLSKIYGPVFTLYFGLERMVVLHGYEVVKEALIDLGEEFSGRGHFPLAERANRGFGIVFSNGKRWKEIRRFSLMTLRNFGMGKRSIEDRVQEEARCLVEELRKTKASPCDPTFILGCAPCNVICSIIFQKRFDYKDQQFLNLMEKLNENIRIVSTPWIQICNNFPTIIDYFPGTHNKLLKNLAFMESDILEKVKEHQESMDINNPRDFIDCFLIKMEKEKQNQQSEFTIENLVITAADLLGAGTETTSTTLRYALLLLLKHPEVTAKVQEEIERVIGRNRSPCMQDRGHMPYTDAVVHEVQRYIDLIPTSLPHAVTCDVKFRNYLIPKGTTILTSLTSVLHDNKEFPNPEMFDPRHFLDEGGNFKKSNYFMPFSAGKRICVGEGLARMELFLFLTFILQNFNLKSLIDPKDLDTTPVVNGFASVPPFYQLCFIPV
Chain of DNA (cytosine-5)-methyltransferase 1 (P26358 whole entry): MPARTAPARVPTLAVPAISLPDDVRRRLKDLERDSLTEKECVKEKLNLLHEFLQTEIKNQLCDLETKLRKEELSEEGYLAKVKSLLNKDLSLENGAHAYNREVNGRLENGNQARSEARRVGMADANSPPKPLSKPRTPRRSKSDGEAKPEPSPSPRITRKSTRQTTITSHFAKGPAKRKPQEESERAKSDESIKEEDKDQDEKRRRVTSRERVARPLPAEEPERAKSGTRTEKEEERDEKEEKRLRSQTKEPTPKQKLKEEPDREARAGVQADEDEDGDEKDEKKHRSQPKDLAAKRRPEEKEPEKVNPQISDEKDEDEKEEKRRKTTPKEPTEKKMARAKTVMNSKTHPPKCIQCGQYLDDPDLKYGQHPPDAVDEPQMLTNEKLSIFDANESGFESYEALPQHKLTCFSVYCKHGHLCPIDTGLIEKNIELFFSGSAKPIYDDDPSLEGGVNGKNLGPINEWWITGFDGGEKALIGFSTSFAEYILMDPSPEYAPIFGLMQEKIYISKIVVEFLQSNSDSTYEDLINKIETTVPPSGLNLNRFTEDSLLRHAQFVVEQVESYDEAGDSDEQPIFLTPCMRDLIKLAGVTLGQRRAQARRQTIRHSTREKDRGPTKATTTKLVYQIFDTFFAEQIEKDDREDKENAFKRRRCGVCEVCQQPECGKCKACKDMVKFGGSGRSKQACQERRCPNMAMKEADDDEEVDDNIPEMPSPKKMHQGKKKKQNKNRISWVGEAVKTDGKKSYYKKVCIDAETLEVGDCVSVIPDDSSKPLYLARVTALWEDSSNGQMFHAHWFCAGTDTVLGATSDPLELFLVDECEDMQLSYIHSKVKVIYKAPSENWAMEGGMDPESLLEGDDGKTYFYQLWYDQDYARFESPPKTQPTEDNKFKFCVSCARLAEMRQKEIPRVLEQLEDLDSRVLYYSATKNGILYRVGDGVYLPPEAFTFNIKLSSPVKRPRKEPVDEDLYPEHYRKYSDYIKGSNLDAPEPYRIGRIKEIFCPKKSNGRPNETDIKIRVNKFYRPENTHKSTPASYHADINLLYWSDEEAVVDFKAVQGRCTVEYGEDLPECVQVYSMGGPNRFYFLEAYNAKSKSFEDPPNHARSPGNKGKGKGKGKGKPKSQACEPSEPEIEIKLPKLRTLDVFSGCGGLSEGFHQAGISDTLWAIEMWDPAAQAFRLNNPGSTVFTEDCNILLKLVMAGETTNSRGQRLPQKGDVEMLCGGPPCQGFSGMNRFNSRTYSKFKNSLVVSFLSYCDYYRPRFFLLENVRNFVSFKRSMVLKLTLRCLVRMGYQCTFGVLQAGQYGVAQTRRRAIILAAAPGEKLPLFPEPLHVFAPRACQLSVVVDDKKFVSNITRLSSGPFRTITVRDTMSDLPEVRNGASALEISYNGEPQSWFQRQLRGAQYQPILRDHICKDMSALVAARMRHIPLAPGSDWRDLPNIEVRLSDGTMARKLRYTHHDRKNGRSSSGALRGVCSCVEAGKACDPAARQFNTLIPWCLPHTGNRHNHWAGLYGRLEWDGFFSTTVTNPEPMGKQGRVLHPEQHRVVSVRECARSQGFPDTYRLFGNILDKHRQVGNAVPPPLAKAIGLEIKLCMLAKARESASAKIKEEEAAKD
Chain of Genome polyprotein (P29990 2492-3391 limits assumed): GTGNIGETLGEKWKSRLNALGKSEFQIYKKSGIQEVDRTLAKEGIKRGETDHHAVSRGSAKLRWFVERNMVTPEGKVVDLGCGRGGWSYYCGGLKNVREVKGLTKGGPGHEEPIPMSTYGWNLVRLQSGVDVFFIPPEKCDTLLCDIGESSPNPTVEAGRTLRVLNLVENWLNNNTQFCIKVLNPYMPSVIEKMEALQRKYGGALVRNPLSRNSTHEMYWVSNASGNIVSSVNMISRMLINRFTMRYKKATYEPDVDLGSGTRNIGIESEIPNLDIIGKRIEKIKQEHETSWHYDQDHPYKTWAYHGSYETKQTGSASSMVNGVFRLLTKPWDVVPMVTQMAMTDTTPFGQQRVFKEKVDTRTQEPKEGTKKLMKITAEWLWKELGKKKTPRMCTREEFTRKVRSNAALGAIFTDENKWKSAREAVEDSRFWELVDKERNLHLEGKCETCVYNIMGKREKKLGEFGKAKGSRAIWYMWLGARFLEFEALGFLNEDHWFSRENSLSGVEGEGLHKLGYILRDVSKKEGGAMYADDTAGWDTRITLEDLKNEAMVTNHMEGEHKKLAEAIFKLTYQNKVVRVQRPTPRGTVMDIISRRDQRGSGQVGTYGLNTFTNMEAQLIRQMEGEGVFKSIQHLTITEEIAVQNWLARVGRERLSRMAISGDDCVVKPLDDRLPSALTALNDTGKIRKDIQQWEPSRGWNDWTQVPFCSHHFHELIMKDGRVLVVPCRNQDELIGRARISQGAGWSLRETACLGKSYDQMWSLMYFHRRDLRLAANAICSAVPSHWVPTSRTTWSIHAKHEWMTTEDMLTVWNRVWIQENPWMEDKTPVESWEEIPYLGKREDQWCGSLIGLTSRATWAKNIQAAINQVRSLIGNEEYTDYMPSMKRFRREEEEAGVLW

## Cc1ccc(C(=O)N/N=C/c2ccc([N+](=O)[O-])s2)cc1
HT-1080
  EC50: > 50 µM (not active)
[1]
  EC50: 3.5 µM (active)
Estrogen receptor
  IC50: 21.1 µM (active)
[2]
  EC50: > 30 µM (not active)
[3]
  EC50: 3.5 µM (active)
cells
  IC50: 5.2 µM (active)
H4 [4]
  AC50: 3 µM (active)
[5]
  EC50: 3.05 µM (active)
[6]
  EC50: 0.324 µM (active)
[7]
  CC50: 11.5 µM (active)
[8]
  IC50: > 80 µM (inactive)
Streptococcus
  EC50: 14.3 µM (active)
Cytochrome P450 2D6
  AC50: 15.8 µM (inconclusive)
Streptokinase A
  EC50: > 150 µM (not active)
[9]
  EC50: 5.16 µM (active)
H4 [10]
  AC50: 0.875 µM (active)
Cytochrome P450 2C19
  AC50: 39.8 µM (inconclusive)
H4 [11]
  AC50: 3.18 µM (active)
[12]
  EC50: 0.72 µM (active)
[13]
  AC50: 2.2 µM (active)
[14]
  CC50: 12.2 µM (active)

## C/C(=C/CCC(C)[C@H]1CC[C@@]2(C)C3=C(CC[C@]12C)[C@@]1(C)CCC(=O)C(C)(C)[C@@H]1CC3)C(=O)O (some centres not stated)
[15]
  IC50: 5.93 µM (active)
[16]
  AC50: 2.12 µM (active)
Phospholipase A2
  IC50: 2.04 µM (active)
Genome polyprotein
  IC50: 47.9 µM (active)
Cysteine protease ATG4B
  IC50: 5.45 µM (active)
Protein RecA
  EC50: 5.88 µM (active)
